In US20250034216A1, “STEREOSELECTIVE COVALENT LIGANDS FOR ONCOGENIC AND IMMUNOLOGICAL PROTEINS” (The Scripps Research Institute, priority 2021, published 2025):

How the values were obtained:
Assay in all cases: IA-DTB cysteine engagement
Format in all cases: binding
PTGR1_C239 = molecular target: T1, PTGR1_C239 (Homo sapiens, UniProt Q14914); settings: 22Rv1 cells, relative to DMSO; for % engagement PTGR1_239: 5 μM probe, 1 h (FIG. 5B); for % engagement PTGR1_C239: 20 μM probe, 1 h
T1 construct: endogenous in cells; host or cells: 22Rv1
How it was run: (§1)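 Read-out is TMT-based cysteine engagement, expressed as each reporter ion intensity divided by the average of the DMSO channels. Before that, probe-treated cell lysates were capped with IA-DTB, digested, enriched on streptavidin and TMT-tagged. PSMs with DMSO summed intensity <10,000 or DMSO CV >0.5 were excluded.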

NUDT8_C207 = molecular target: T2, NUDT8_C207 (Homo sapiens, UniProt Q8WV74); settings: 22Rv1 cells, 20 μM probe, 1 h, relative to DMSO
T2 construct: endogenous in cells; host or cells: 22Rv1
T2 sequence (Q8WV74 1-236): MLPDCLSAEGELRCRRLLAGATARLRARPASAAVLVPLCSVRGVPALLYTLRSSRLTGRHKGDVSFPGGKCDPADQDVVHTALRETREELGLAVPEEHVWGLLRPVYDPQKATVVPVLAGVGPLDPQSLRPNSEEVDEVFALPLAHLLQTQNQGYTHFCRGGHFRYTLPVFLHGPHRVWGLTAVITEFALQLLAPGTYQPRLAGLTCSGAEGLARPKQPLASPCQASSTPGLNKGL
How it was run: as §1

ANGEL1_C27 = molecular target: T3, ANGEL1_C27 (Homo sapiens, UniProt Q9UNK9); settings: 22Rv1 cells, 20 μM probe, 1 h, relative to DMSO
T3 construct: endogenous in cells; host or cells: 22Rv1
T3 sequence (Q9UNK9 1-670): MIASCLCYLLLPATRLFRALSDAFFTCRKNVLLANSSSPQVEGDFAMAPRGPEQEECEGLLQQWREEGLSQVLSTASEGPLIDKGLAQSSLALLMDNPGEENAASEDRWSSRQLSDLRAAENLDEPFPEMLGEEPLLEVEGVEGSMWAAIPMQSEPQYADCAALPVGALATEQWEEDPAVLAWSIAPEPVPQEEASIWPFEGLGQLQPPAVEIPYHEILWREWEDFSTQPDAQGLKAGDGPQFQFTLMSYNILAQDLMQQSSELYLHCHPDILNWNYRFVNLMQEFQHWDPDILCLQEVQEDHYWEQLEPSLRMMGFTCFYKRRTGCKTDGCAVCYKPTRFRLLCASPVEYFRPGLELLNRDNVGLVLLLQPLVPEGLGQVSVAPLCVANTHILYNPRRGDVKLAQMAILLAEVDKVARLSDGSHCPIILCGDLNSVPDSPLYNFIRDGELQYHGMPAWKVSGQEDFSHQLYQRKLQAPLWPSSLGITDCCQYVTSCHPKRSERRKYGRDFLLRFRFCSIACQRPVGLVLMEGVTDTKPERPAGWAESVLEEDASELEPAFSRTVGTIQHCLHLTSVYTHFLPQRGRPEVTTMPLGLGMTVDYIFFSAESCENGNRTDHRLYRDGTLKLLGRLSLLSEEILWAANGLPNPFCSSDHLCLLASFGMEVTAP
How it was run: as §1

NT5DC2_C507 = molecular target: T4, NT5DC2_C507 (Homo sapiens, UniProt Q9H857); settings: 22Rv1 cells, 20 μM probe, 1 h, relative to DMSO
T4 construct: endogenous in cells; host or cells: 22Rv1
T4 sequence (Q9H857 1-520): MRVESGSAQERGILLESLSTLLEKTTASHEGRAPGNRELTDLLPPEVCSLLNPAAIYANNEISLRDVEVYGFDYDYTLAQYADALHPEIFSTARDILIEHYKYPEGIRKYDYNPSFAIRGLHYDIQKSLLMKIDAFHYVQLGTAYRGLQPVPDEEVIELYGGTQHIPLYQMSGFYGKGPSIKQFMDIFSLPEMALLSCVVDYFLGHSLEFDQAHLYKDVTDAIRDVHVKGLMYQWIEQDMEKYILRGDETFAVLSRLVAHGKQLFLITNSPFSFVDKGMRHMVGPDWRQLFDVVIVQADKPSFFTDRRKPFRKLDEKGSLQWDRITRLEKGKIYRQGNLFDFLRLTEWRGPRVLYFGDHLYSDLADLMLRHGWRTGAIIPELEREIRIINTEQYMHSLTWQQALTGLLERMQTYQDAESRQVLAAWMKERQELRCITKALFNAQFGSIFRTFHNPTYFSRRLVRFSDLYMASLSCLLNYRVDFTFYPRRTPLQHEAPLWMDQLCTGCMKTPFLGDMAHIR
How it was run: as §1

T1 sequence (Q14914 whole entry): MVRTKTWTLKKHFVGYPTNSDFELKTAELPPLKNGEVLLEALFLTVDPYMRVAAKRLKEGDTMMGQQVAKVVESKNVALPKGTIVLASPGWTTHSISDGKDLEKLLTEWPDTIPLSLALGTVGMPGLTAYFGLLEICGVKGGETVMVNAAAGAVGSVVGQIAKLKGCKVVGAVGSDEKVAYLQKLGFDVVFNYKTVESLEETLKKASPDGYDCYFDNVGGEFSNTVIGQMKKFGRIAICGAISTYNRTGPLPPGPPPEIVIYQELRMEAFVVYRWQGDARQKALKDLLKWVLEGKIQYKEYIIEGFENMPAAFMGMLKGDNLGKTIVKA

With `CC#CC(=O)N1C[C@H](c2ccc(Br)cc2)[C@@H]1C(=O)Nc1cccc2cccnc12` [MY-45B, (2R,3S)-3-(4-bromophenyl)-1-(but-2-ynoyl)-N-(quinolin-8-yl)azetidine-2-carboxamide] the “% engagement PTGR1_239” value (PTGR1_C239) was −4.50%.
In the case of `C=CC(=O)N1C[C@H](c2ccc(Br)cc2)[C@H]1C(=O)Nc1cccc2cccnc12` [MY-3A, (2S,3S)-1-acryloyl-3-(4-bromophenyl)-N-(quinolin-8-yl)azetidine-2-carboxamide], the “% engagement NUDT8_C207” value (NUDT8_C207) is reported as 64.25%, the “% engagement ANGEL1_C27” value (ANGEL1_C27) is reported as 45.5% and the “% engagement NT5DC2_C507” value (NT5DC2_C507) is reported as 50.5%. For the same compound, the “% engagement PTGR1_C239” value (PTGR1_C239) was −4%.
In the case of `C=CC(=O)N1C[C@@H](c2ccc(Br)cc2)[C@H]1C(=O)Nc1cccc2cccnc12` [MY-1A, (2S,3R)-1-acryloyl-3-(4-bromophenyl)-N-(quinolin-8-yl)azetidine-2-carboxamide], the “% engagement NUDT8_C207” value (NUDT8_C207) is reported as 71.5%, the “% engagement ANGEL1_C27” value (ANGEL1_C27) is reported as 63% and the “% engagement NT5DC2_C507” value (NT5DC2_C507) is reported as 83.75%. The “% engagement PTGR1_C239” value (PTGR1_C239) was 75%.
With `C=CC(=O)N1C[C@H](c2ccc(Br)cc2)[C@@H]1C(=O)Nc1cccc2cccnc12` [MY-1B, (2R,3S)-1-acryloyl-3-(4-bromophenyl)-N-(quinolin-8-yl)azetidine-2-carboxamide] the “% engagement NUDT8_C207” value (NUDT8_C207) was 78.5%, the “% engagement ANGEL1_C27” value (ANGEL1_C27) was 66.5% and the “% engagement NT5DC2_C507” value (NT5DC2_C507) was 67.25%. The “% engagement PTGR1_239” value (PTGR1_C239) was 81.33% and the “% engagement PTGR1_C239” value (PTGR1_C239) was 79%.
`C=CC(=O)N1C[C@H](c2ccc(Br)cc2)[C@H]1C(=O)Nc1cccc2cccnc12` [MY-3B, (2S,3S)-1-acryloyl-3-(4-bromophenyl)-N-(quinolin-8-yl)azetidine-2-carboxamide] was tested, and the “% engagement NUDT8_C207” value (NUDT8_C207) was 88.75%, the “% engagement ANGEL1_C27” value (ANGEL1_C27) was 54.5% and the “% engagement NT5DC2_C507” value (NT5DC2_C507) was 57.5%. For the same compound, the “% engagement PTGR1_C239” value (PTGR1_C239) was −16.5%.
